Measured values from US10981932B2, “Macrocyclic indole derivatives” (Bayer Aktiengesellschaft, priority 2016, dated 2021).
Structures can show the parent of a compound that is named as a salt. Where two headings read alike, the source gives them in different places. Each block holds one compound with its values, some of them ahead of it.

What was measured:
MCL-1 = MCL-1 (Homo sapiens, UniProt Q07820); assay: Protein-protein interaction assay MCL-1/Noxa BH3 peptide (MCL-1 assay), TR-FRET; type: binding; conditions: MBP-MCL-1 / Noxa BH3-derived peptide, median
Sequence of MCL-1 (Q07820 whole entry): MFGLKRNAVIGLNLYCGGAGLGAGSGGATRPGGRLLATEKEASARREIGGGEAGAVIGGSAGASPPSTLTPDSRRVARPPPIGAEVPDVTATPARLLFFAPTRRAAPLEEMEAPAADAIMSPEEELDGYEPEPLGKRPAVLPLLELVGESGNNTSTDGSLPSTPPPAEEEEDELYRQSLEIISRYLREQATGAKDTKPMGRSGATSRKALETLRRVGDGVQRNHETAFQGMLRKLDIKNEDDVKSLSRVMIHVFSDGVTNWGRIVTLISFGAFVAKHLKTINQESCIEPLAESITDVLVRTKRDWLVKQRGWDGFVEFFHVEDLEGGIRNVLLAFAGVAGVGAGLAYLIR
Summary of the method: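 TR-FRET, 665/622 nm emission ratio (excitation 330–350 nm), measured MCL-1/Noxa complex formation. 1 nM MBP-MCL-1, 50 mM Tris/HCl pH 7, 0.1% BGG, 2 mM DTT. Incubation 1 h at 22 °C, then overnight at 4 °C. IC50 by 4-parameter regression, normalized to DMSO (0%) and no-MCL-1 (100%) controls.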

SUDHL10 [1] = assay: Induction of caspase-3/7 activity (Caspase-Glo 3/7), SUDHL10; type: cell-based; conditions: caspase-3/7 induction, SUDHL10 cells, 3 h treatment, median
Summary of the method: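 DLBCL cells treated with compounds for 3 h at 37 °C, then caspase-3/7 activity read by Caspase-Glo 3/7 luminescence. Medium-only background subtracted; EC50 fitted with C0 fixed at 1 and top set to the reference compound's maximal induction.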

SUDHL5 = assay: Induction of cytotoxicity (CellTiter-Glo, 5 h), SUDHL5
SUDHL10 [2] = assay: Induction of cytotoxicity (CellTiter-Glo, 5 h), SUDHL10
[3] = Homo sapiens, SU-DHL-5, 5 h, read-out: Cytotox SUDHL5 [M] (median), SUDHL5 cells, cytotoxicity induction, CellTiter-Glo, 5 h incubation, median
[4] = Homo sapiens, SU-DHL10, 5 h, read-out: Cytotox SUDHL10 [M] (median), SUDHL10 cells, cytotoxicity induction, CellTiter-Glo, 5 h incubation, median
[5] = read-out: Cytotox SUDHL5 [M] (median), SUDHL5 cells, cytotoxicity induction, CellTiter-Glo, 5 h incubation, median
[6] = read-out: Cytotox SUDHL10 [M] (median), SUDHL10 cells, cytotoxicity induction, CellTiter-Glo, 5 h incubation, median

SMILES: COCCn1nc2c(c1CN1CCOCC1)-c1cccc3c(CCCOc4cccc5ccccc45)c(C(=O)O)n(c13)CCCN(C)C2 (single isomer, unassigned; enantiomer 1) [Example 057, 10-(2-methoxyethyl)-7-methyl-11-(morpholin-4-ylmethyl)-1-[3-(naphthalen-1-yloxy)propyl]-4,5,6,7,8,10-hexahydropyrazolo[3′,4′:7,8][1,5]diazecino[9,10,1-hi]indole-2-carboxylic Acid (Enantiomer 1)]
IC50 (MCL-1): 0.0453 µM
EC50 (SUDHL10 [1]; Homo sapiens, SU-DHL10, 3 h): 24.7 µM
IC50 (SUDHL5; [3]): 2.5e-05 M
IC50 (SUDHL10 [2]; [4]): 2.39e-05 M

SMILES: Cc1nn(C)c2c1-c1cccc3c(CCCOc4ccc(F)c5ccccc45)c(C(=O)O)n(c13)CCCCOC2 (single isomer, unassigned; enantiomer 2) [Example 023, 7-{3-[(4-fluoronaphthalen-1-yl)oxy]propyl}-1,3-dimethyl-1,10,11,12,13,15-hexahydropyrazolo[4′3′:9,10][1,6]oxazacycloundecino[8,7,6-hi]indole-8-carboxylic acid-N-ethylethanamine Salt (Enantiomer 2)]
IC50 (MCL-1): 0.00169 µM
EC50 (SUDHL10 [1]): 7.46 µM
IC50 (SUDHL5; [5]): 1.84e-06 M
IC50 (SUDHL10 [2]; [6]): 5.85e-06 M

SMILES: Cn1nc(COc2ccc(N3CCN(S(=O)(=O)C4CC4)CC3)cc2)c2c1COCCCCn1c(C(=O)O)c(CCCOc3cccc4ccccc34)c3cccc-2c31 (single isomer, unassigned; enantiomer 2) [Example 1-13, 3-({4-[4-(cyclopropylsulfonyl)piperazin-1-yl]phenoxy}methyl)-1-methyl-7-[3-(naphthalen-1-yloxy)propyl]-1,10,11,12,13,15-hexahydropyrazolo[4′,3′:9,10][1,6]oxazacycloundecino[8,7,6-hi]indole-8-carboxylic Acid (Enantiomer 2)]
IC50 (MCL-1): 0.000796 µM
EC50 (SUDHL10 [1]): 0.614 µM
IC50 (SUDHL5; [5]): 4.1e-07 M
IC50 (SUDHL10 [2]; [6]): 4.36e-07 M

SMILES: Cc1nn(C)c2c1-c1cccc3c(CCCOc4cccc5cc(F)ccc45)c(C(=O)O)n(c13)CCCOC2 (single isomer, unassigned; enantiomer 1) [Example 047, 1-{3-[(6-fluoronaphthalen-1-yl)oxy]propyl}-9,11-dimethyl-5,6,8,9-tetrahydro-4H-pyrazolo[4′,3′:8,9][1,5]oxazecino[7,6,5-hi]indole-2-carboxylic acid-N-ethylethanamine Salt (Enantiomer 1)]
IC50 (MCL-1): 0.00286 µM
EC50 (SUDHL10 [1]): 6.66 µM
IC50 (SUDHL5; [5]): 3.22e-06 M
IC50 (SUDHL10 [2]; [6]): 6.49e-06 M

SMILES: Cc1nn(C)c2c1-c1cccc3c(CCCOc4cccc5ccccc45)c(C(=O)O)n(c13)CCCN(C)C2 (single isomer, unassigned; enantiomer 1) [Example 1-31, 7,9,11-trimethyl-1-[3-(naphthalen-1-yloxy)propyl]-4,5,6,7,8,9-hexahydropyrazolo[3′,4′:7,8][1,5]diazecino[9,10,1-hi]indole-2-carboxylic Acid-N-ethylethanamine Salt (Enantiomer 1)]
IC50 (MCL-1): 0.00462 µM
EC50 (SUDHL10 [1]): 7.27 µM
IC50 (SUDHL5; [5]): 4.6e-06 M
IC50 (SUDHL10 [2]; [6]): 1.61e-05 M

SMILES: COCCn1nc2c(c1C1CC1)-c1cccc3c(CCCOc4cccc5ccccc45)c(C(=O)O)n(c13)CCCCOC2 (single isomer, unassigned; enantiomer 1) [Example 085, 3-Cyclopropyl-2-(2-methoxyethyl)-7-[3-(naphthalen-1-yloxy)propyl]-2,10,11,12,13,15-hexahydropyrazolo[4′,3′:9,10][1,6]oxazacycloundecino[8,7,6-hi]indole-8-carboxylic acid-N-ethylethanamine Salt (Enantiomer 1)]
IC50 (MCL-1): 0.00451 µM
EC50 (SUDHL10 [1]): 15.5 µM
IC50 (SUDHL5; [5]): 3.91e-06 M
IC50 (SUDHL10 [2]; [4]): 1.97e-05 M

SMILES: Cc1ccc2c(CCCOc3cccc4ccccc34)c(C(=O)O)n3c2c1-c1c(nn(C)c1C)CN(C)CCC3 (single isomer, unassigned; enantiomer 2) [Example 074, 7,10,11,12-tetramethyl-1-[3-(naphthalen-1-yloxy)propyl]-4,5,6,7,8,10-hexahydropyrazolo[3′,4′:7,8][1,5]diazecino[9,10,1-hi]indole-2-carboxylic Acid (Enantiomer 2)]
IC50 (MCL-1): 0.0269 µM
EC50 (SUDHL10 [1]): > 33 µM
IC50 (SUDHL5; [5]): 1.2e-05 M
IC50 (SUDHL10 [2]; [6]): 1.17e-05 M

SMILES: Cn1nc(COc2ccc(N3CCN(C(=O)C4CC4)CC3)cc2)c2c1COCCCCn1c(C(=O)O)c(CCCOc3cccc4ccccc34)c3cccc-2c31 (single isomer, unassigned; enantiomer 1) [Example 1-22, 3-({4-[4-(cyclopropylcarbonyl)piperazin-1-yl]phenoxy}methyl)-1-methyl-7-[3-(naphthalen-1-yloxy)propyl]-1,10,11,12,13,15-hexahydropyrazolo[4′,3′:9,10][1,6]oxazacycloundecino[8,7,6-hi]indole-8-carboxylic Acid (Enantiomer 1)]
IC50 (MCL-1): 0.000787 µM
EC50 (SUDHL10 [1]): 2.21 µM
IC50 (SUDHL5; [5]): 1.37e-06 M
IC50 (SUDHL10 [2]; [6]): 2.7e-06 M

SMILES: Cc1c2c(nn1CCN1CCOCC1)CN(C)CCCn1c(C(=O)O)c(CCCOc3cccc4ccccc34)c3cccc-2c31 (single isomer, unassigned; enantiomer 2) [Example 061, 7,11-dimethyl-10-[2-(morpholin-4-yl)ethyl]-1-[3-(naphthalen-1-yloxy)propyl]-4,5,6,7,8,10-hexahydropyrazolo[3′,4′:7,8][1,5]diazecino[9,10,1-hi]indole-2-carboxylic Acid (Enantiomer 2)]
IC50 (MCL-1): 0.0322 µM
EC50 (SUDHL10 [1]): 18.6 µM
IC50 (SUDHL5; [5]): 1.63e-05 M
IC50 (SUDHL10 [2]; [6]): 1.75e-05 M

SMILES: Cc1ccc2c(CCCOc3cccc4c3CCCC4)c(C(=O)O)n3c2c1-c1c(C)nn(C)c1COCCCC3 (racemic) [Example 039, (rac)-1,3,4-trimethyl-7-[3-(5,6,7,8-tetrahydronaphthalen-1-yloxy)propyl]-110,11,12,13,15-hexahydropyrazolo[4′3′:9,10][1,6]oxazacycloundecino[8,7,6-hi]indole-8-carboxylic Acid]
IC50 (MCL-1): 0.00501 µM
EC50 (SUDHL10 [1]; Homo sapiens, SU-DHL10, 3 h): 24.8 µM
IC50 (SUDHL5; [3]): 8.59e-06 M
IC50 (SUDHL10 [2]; [4]): 2.97e-05 M

SMILES: CN1CCCn2c(C(=O)O)c(CCCOc3cccc4ccccc34)c3cccc(c32)-c2c(CN3CCOCC3)nn(C)c2C1 (single isomer, unassigned; enantiomer 1) [Example 1-43, (+)-7,9-dimethyl-11-(morpholin-4-ylmethyl)-1-[3-(naphthalen-1-yloxy)propyl]-4,5,6,7,8,9-hexahydropyrazolo[3′,4′:7,8][1,5]diazecino[9,10,1-hi]indole-2-carboxylic Acid (Enantiomer 1)]
IC50 (MCL-1): 0.00799 µM
EC50 (SUDHL10 [1]; Homo sapiens, SU-DHL10, 3 h): 11.1 µM
IC50 (SUDHL5; [3]): 6.9e-06 M
IC50 (SUDHL10 [2]; [6]): 1.48e-05 M

Further lines, with some results ahead:

IC50 (MCL-1): 0.00119 µM
EC50 (SUDHL10 [1]): 6.64 µM
SMILES: Cc1c2c(nn1C1CC1)COCCCCn1c(C(=O)O)c(CCCOc3cccc4ccccc34)c3cccc-2c31 (single isomer, unassigned; enantiomer 1) [Example 093, 2-cyclopropyl-3-methyl-7-[3-(naphthalen-1-yloxy)propyl]-2,10,11,12,13,15-hexahydropyrazolo[4′,3′:9,10][1,6]oxazacycloundecino[8,7,6-hi]indole-8-carboxylic acid-N-ethylethanamine Salt (Enantiomer 1)]
IC50 (SUDHL5; [5]): 2.1e-06 M
IC50 (SUDHL10 [2]; [6]): 7.2e-06 M

IC50 (MCL-1): 0.00117 µM
EC50 (SUDHL10 [1]): 2.57 µM
SMILES: CCc1c2c(nn1C)CN(C)CCCn1c(C(=O)O)c(CCCOc3cccc4ccccc34)c3ccc(C)c-2c31 (single isomer, unassigned; enantiomer 1) [Example 145, 11-Ethyl-7,10,12-trimethyl-1-[3-(1-naphthyloxy)propyl]-4,5,6,7,8,10-hexahydropyrazolo[3′,4′:7,8][1,5]diazecino[9,10,1-hi]indole-2-carboxylic acid-N-ethylethanamine Salt (Enantiomer 1)]
IC50 (SUDHL5; [5]): 1.4e-06 M
IC50 (SUDHL10 [2]; [6]): 2.4e-06 M

IC50 (MCL-1): 0.00727 µM
EC50 (SUDHL10 [1]; Homo sapiens, SU-DHL10, 3 h): 7.3 µM
SMILES: CCc1c2c(nn1C)CN(C)CCCn1c(C(=O)O)c(CCCOc3cccc4ccccc34)c3cccc-2c31 (racemic) [Example 141, (rac)-11-ethyl-7,10-dimethyl-1-[3-(1-naphthyloxy)propyl]-4,5,6,7,8,10-hexahydropyrazolo[3′,4′:7,8][1,5]diazecino[9,10,1-hi]indole-2-carboxylic Acid]
IC50 (SUDHL5; [3]): 3.66e-06 M
IC50 (SUDHL10 [2]; [4]): 7.87e-06 M

IC50 (MCL-1): 0.00128 µM
EC50 (SUDHL10 [1]): 1.7 µM
SMILES: CCc1c2c(nn1C)COCCCCn1c(C(=O)O)c(CCCOc3cccc4ccccc34)c3ccc(C)c-2c31 (single isomer, unassigned; enantiomer 1) [Example 154, 3-Ethyl-2,4-dimethyl-7-[3-(1-naphthyloxy)propyl]-2,10,11,12,13,15-hexahydropyrazolo[4′,3′:9,10][1,6]oxazacycloundecino[8,7,6-hi]indole-8-carboxylic acid-N-ethylethanamine Salt (Enantiomer 1)]
IC50 (SUDHL5; [5]): 1.08e-06 M
IC50 (SUDHL10 [2]; [6]): 2.03e-06 M

IC50 (MCL-1): 0.0197 µM
SMILES: CC(C)c1c2c(nn1C)CN(C)CCCn1c(C(=O)O)c(CCCOc3cccc4ccccc34)c3cccc-2c31 (racemic) [Example 113, (rac)-7,10-dimethyl-1-[3-(naphthalen-1-yloxy)propyl]-11-(propan-2-yl)-4,5,6,7,8,10-hexahydropyrazolo[3′,4′:7,8][1,5]diazecino[9,10,1-hi]indole-2-carboxylic Acid]
IC50 (SUDHL5; [3]): 6.84e-06 M
IC50 (SUDHL10 [2]; [4]): 7.9e-06 M
